From patent publication US12649733B2, “3,6-diamino-pyridazin-3-yl derivatives, pharmaceutical compositions containing them and their uses as pro-apoptotic agents” (LES LABORATOIRES SERVIER, priority 2019, dated 2026)

Columns and labels:
BCLXL = BCLXL (Homo sapiens, UniProt Q07817, V10N/V9A); test: Fluorescence polarisation assay (PUMA-based probe displacement); type: binding; further: 20 nM protein, 10 nM fluorescent probe
Description: Fluorescence polarization measures the rotation of a fluorescing species in solution, the larger the molecule the more polarized the fluorescence emission.
[[…]] (GST UniProtKB® primary accession number P08515 and BCLXL UniProtKB® primary accession number Q07817-1),
resulting in an increase in anisotropy. If a compound is added which competitively binds to the same site as the probe, thereby releasing it, anisotropy decreases due to the increased amount of free probe.
An 11-point serial dilution of each compound was prepared in DMSO, the final buffer conditions were 10 mM 4-(2-hydroxyethyl)-1-piperazineethanesulfonic acid [HEPES], 150 mM NaCl, 0.05% Tween 20, pH 7.4 and 5% DMSO. The final protein concentration in the assay was 20 nM with the fluorescent probe present at 10 nM. The experiments were incubated for 2 hours at 23° C. before fluorescence polarization was measured on a Biotek SynergyNeo plate reader (Excitation 485 nm, emission 525 nm, parallel and perpendicular reads). […] The KI values were determined from the IC50 values according to Cer et al, Nucleic Acids Res, 2009, Jul. 1: 37(WebServer issue): W441-W445.

H146 cells = test: H146 cell viability, MTT assay; type: cell-based; conditions: Homo sapiens, NCI-H146, 48 h, 48 h exposure
Description: (§1) MTT colorimetric assay is based on the mitochondrial reduction of tetrazolium salt by living cells. The viable cell number is proportional to the production of formazan salts, which can be read spectrophotometrically at 540 nm.
(§2) MOLT-4 and H146 cells were purchased from ATCC and cultivated in RPMI 1640 supplemented with 10% heat inactivated fetal bovine serum, penicillin (100 IU/ml), streptomycin (100 μg/ml) and L-glutamine (2 mM). Cells were cultured at 37° C. in a humidified atmosphere containing 5% CO2. Cells were seeded in 96 microwell plates (150 μL per well) and exposed to the compounds for 48 h (3.16 fold serially diluted; 9 concentrations each, triplicates). At the end of incubation time, 15 μL of MTT solution (5 mg/ml) were added per well and the cells were incubated for another 4 h. Then, 100 μL of 10% Sodium Dodecyl Sulfate (SDS)/HCl 10 mM were added per well and the plate was incubated overnight, before measurement of optical density at 540 nm. IC50s were calculated using standard four-parametric curve fitting.

MOLT-4 cells = test: MOLT-4 cell viability, MTT assay; type: cell-based; conditions: Homo sapiens, MOLT-4, 48 h, 48 h exposure
Description: as §1, §2

BCLXL, sequence (Q07817 with tags, fused parts or gaps V9A/V10N): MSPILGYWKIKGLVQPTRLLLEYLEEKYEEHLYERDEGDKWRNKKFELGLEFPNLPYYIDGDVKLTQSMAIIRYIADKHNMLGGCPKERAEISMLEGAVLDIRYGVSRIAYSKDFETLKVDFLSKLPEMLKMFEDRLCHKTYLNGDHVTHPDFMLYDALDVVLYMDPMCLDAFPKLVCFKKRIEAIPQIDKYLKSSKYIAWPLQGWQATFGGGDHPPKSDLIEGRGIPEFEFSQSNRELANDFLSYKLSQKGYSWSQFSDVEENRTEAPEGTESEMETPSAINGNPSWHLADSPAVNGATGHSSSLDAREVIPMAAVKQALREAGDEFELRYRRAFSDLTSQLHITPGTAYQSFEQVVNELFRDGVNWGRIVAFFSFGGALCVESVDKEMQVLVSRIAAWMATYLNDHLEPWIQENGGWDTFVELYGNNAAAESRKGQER

## O=C(O)c1csc(Nc2ccc(Nc3nc4ccccc4s3)nn2)n1 [Example 4, 2-({6-[(1,3-Benzothiazol-2-yl)amino]pyridazin-3-yl}amino)-1,3-thiazole-4-carboxylic acid]
BCLXL
  Ki: 910 nM

## Cc1cc(N(C)c2nc(C(=O)O)c(N3CC(O)C3)s2)nnc1Nc1nc2ccccc2s1 [Example 72, 2-({6-[(1,3-Benzothiazol-2-yl)amino]-5-methylpyridazin-3-yl}(methyl)amino)-5-(3-hydroxyazetidin-1-yl)-1,3-thiazole-4-carboxylic acid]
BCLXL
  Ki: 160 nM

## Cc1cc(N(C)c2nc(C(=O)O)c(C3CN(C)C3)s2)nnc1Nc1nc2ccccc2s1 [Example 157, 2-({6-[(1,3-Benzothiazol-2-yl)amino]-5-methylpyridazin-3-yl}(methyl)amino)-5-(1-methylazetidin-3-yl)-1,3-thiazole-4-carboxylic acid]
BCLXL
  Ki: 1200 nM

## Cc1cc(Nc2nc(C(=O)O)cs2)nnc1Nc1nc2ccccc2s1 [Example 7, 2-({6-[(1,3-Benzothiazol-2-yl)amino]-5-methylpyridazin-3-yl}amino)-1,3-thiazole-4-carboxylic acid]
H146 cells
  IC50: > 15000 nM

## CCNC(=O)N1CC(c2sc(N(C)c3cc(C)c(Nc4nc5ccccc5s4)nn3)nc2C(=O)O)C1 [Example 160, 2-({6-[(1,3-Benzothiazol-2-yl)amino]-5-methylpyridazin-3-yl}(methyl)amino)-5-[1-(ethylcarbamoyl)azetidin-3-yl]-1,3-thiazole-4-carboxylic acid]
BCLXL
  Ki: 220 nM

## Cc1cc(N(CC(CO)N2CCOCC2)c2nc(C(=O)O)cs2)nnc1Nc1nc2ccccc2s1 (stereo not shown) [Example 107, 2-[[6-(1,3-Benzothiazol-2-ylamino)-5-methyl-pyridazin-3-yl]-(3-hydroxy-2-morpholino-propyl)amino]thiazole-4-carboxylic acid]
BCLXL
  Ki: 130 nM

## Cc1c(Nc2nc3ccccc3s2)nnc(Nc2nc(C(=O)O)cs2)c1CCCN1CCN(C)CC1 [Example 51, 2-({6-[(1,3-Benzothiazol-2-yl)amino]-5-methyl-4-[3-(4-methylpiperazin-1-yl)propyl]pyridazin-3-yl}amino)-1,3-thiazole-4-carboxylic acid]
MOLT-4 cells
  IC50: > 15000 nM
H146 cells
  IC50: > 15000 nM

## Cc1cc(N(C)c2nc(C(=O)O)c(C3CN(CC(C)C)C3)s2)nnc1Nc1nc2ccccc2s1 [Example 156, 2-({6-[(1,3-Benzothiazol-2-yl)amino]-5-methylpyridazin-3-yl}(methyl)amino)-5-[1-(2-methylpropyl)azetidin-3-yl]-1,3-thiazole-4-carboxylic acid]
BCLXL
  Ki: 890 nM

## Cc1cc(N(CCCC(O)CO)c2nc(C(=O)O)cs2)nnc1Nc1nc2ccccc2s1 (stereo not shown) [Example 104, 2-[[6-(1,3-Benzothiazol-2-ylamino)-5-methyl-pyridazin-3-yl]-(4,5-dihydroxypentyl)amino]thiazole-4-carboxylic acid]
BCLXL
  Ki: 16 nM

## CNCC#Cc1ccc(OCCCc2sc(N(CCCCC[N+](C)(C)C)c3cc(C)c(Nc4nc5ccccc5s4)nn3)nc2C(=O)O)c(F)c1 [Example 219, 2-[[6-(1,3-Benzothiazol-2-ylamino)-5-methyl-pyridazin-3-yl]-[5-(trimethylammonio)pentyl]amino]-5-[3-[2-fluoro-4-[3-(methylamino)prop-1-ynyl]phenoxy]propyl]thiazole-4-carboxylate]
MOLT-4 cells
  IC50: 1270 nM
H146 cells
  IC50: 129 nM

## Cc1c(Nc2nc(C(=O)O)cs2)nnc(Nc2nc3c(F)cccc3s2)c1C [Example 55, 2-[[6-[(4-Fluoro-1,3-benzothiazol-2-yl)amino]-4,5-dimethyl-pyridazin-3-yl]amino]thiazole-4-carboxylic acid]
BCLXL
  Ki: 82 nM

## Cc1c(Nc2nc(C(=O)O)cs2)nnc(Nc2nc3ccccc3s2)c1C [Example 1]
H146 cells
  IC50: 15000 nM

## Cc1c(Nc2nc(C(=O)O)cs2)nnc(Nc2nc3ccccc3s2)c1C1CC1 [Example 20, 2-({6-[(1,3-Benzothiazol-2-yl)amino]-5-cyclopropyl-4-methylpyridazin-3-yl}amino)-1,3-thiazole-4-carboxylic acid]
MOLT-4 cells
  IC50: 7210 nM
H146 cells
  IC50: 3350 nM

## CNCC#Cc1ccc(OCCCc2sc(N(CCCCN(C)C)c3cc(C)c(Nc4nc5ccccc5s4)nn3)nc2C(=O)O)c(F)c1 [Example 210, 2-[[6-(1,3-Benzothiazol-2-ylamino)-5-methyl-pyridazin-3-yl]-[4-(dimethylamino)butyl]amino]-5-[3-[2-fluoro-4-[3-(methylamino)prop-1-ynyl]phenoxy]propyl]thiazole-4-carboxylic acid]
MOLT-4 cells
  IC50: 20.3 nM
H146 cells
  IC50: 21.4 nM

## O=C(O)c1csc(Nc2nnc(Nc3nc4ccccc4s3)c3c2CCCC3)n1 [Example 17, 2-[[4-(1,3-Benzothiazol-2-ylamino)-5,6,7,8-tetrahydrophthalazin-1-yl]amino]thiazole-4-carboxylic acid]
MOLT-4 cells
  IC50: 7880 nM
H146 cells
  IC50: 13400 nM

## Cc1cc(N(C)c2nc(C(=O)O)c(C3CN(S(C)(=O)=O)C3)s2)nnc1Nc1nc2ccccc2s1 [Example 149, 2-({6-[(1,3-Benzothiazol-2-yl)amino]-5-methylpyridazin-3-yl}(methyl)amino)-5-(1-methanesulfonylazetidin-3-yl)-1,3-thiazole-4-carboxylic acid]
BCLXL
  Ki: 1300 nM

## Cc1cc(N(C)c2nc(C(=O)O)c(C3CN(C(=O)NCc4ccccc4)C3)s2)nnc1Nc1nc2ccccc2s1 [Example 159, 2-({6-[(1,3-Benzothiazol-2-yl)amino]-5-methylpyridazin-3-yl}(methyl)amino)-5-[1-(benzylcarbamoyl)azetidin-3-yl]-1,3-thiazole-4-carboxylic acid]
BCLXL
  Ki: 180 nM

## Cc1cc(N(C)c2nc(C(=O)O)cs2)nnc1Nc1nc2ccccc2s1 [Example 21, 2-({6-[(1,3-Benzothiazol-2-yl)amino]-5-methylpyridazin-3-yl}(methyl)amino)-1,3-thiazole-4-carboxylic acid]
H146 cells
  IC50: 9580 nM

## CNCC#Cc1ccc(OCCCc2sc(N(CCC[N+](C)(C)C)c3cc(C)c(Nc4nc5ccccc5s4)nn3)nc2C(=O)[O-])c(F)c1 [Example 202, 2-[[6-(1,3-Benzothiazol-2-ylamino)-5-methyl-pyridazin-3-yl]-[3-(trimethylammonio)propyl]amino]-5-[3-[2-fluoro-4-[3-(methylamino)prop-1-ynyl]phenoxy]propyl]thiazole-4-carboxylate]
MOLT-4 cells
  IC50: 611 nM
H146 cells
  IC50: 74.8 nM

## CNCC#Cc1ccc(OCCCc2sc(N(CCCC(O)CN(C)CCP(=O)(O)O)c3cc(C)c(Nc4nc5ccccc5s4)nn3)nc2C(=O)O)c(F)c1 (stereo not shown) [Example 196, 2-[[6-(1,3-Benzothiazol-2-ylamino)-5-methyl-pyridazin-3-yl]-[4-hydroxy-5-[methyl(2-phosphonoethyl)amino]pentyl]amino]-5-[3-[2-fluoro-4-[3-(methylamino)prop-1-ynyl]phenoxy]propyl]thiazole-4-carboxylic acid]
MOLT-4 cells
  IC50: 879 nM
H146 cells
  IC50: 1620 nM

## COCc1c(Nc2nc(C(=O)O)cs2)nnc(Nc2nc3ccccc3s2)c1C [Example 29, 2-({6-[(1,3-Benzothiazol-2-yl)amino]-4-(methoxymethyl)-5-methylpyridazin-3-yl}amino)-1,3-thiazole-4-carboxylic acid]
MOLT-4 cells
  IC50: > 15000 nM
H146 cells
  IC50: > 15000 nM

## Cc1c(Nc2nc3ccccc3s2)nnc(N(C)c2nc(C(=O)O)cs2)c1C [Example 26, 2-({6-[(1,3-Benzothiazol-2-yl)amino]-4,5-dimethylpyridazin-3-yl}(methyl)amino)-1,3-thiazole-4-carboxylic acid]
MOLT-4 cells
  IC50: > 15000 nM
H146 cells
  IC50: > 15000 nM
